Where two headings read alike, the source gives them in different places.

For series [1], the system named is Nc1ccn(C2OC(COP(=O)(O)O)C(O)C2O)c(=O)n1. As to the kind of experiment: purified protein, by the assay type. The note with it: other: hAK2, 37°C, 1 mM ATP; – = Non detectable; 37.0 °C.
In series [2] the test system is Nc1ncnc2c1ncn2[C@@H]1C[C@@H](O)[C@H](COP(=O)(O)O)O1. As to the kind of experiment: purified protein, by the assay type. To be noted: other: hAK2; – = Non detectable.
Series [3] concerns the target T1, human AMP kinase 1 (hAK1, cytosolic adenylate kinase) (Homo sapiens, UniProt P00568).
T1 sequence (P00568 1-194): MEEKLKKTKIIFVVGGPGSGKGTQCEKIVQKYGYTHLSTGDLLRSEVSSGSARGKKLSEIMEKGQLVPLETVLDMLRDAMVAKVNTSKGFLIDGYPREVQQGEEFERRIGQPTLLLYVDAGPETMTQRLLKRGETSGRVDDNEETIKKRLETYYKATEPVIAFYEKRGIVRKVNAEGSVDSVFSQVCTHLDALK
The series can be described thus: coupled spectrophotometric NMP kinase assay, hAK1. To be noted: for Km: hAK1, 37°C, 1 mM ATP, – = Non detectable; for phosphorylation (in words): hAK1. Type of series: biochemical.

Series [4] deals with human AMP kinase 2 (hAK2, mitochondrial adenylate kinase) (Homo sapiens, UniProt P54819). The series can be described thus: coupled spectrophotometric NMP kinase assay, hAK2. To be noted: for Km: hAK2, 37°C, 1 mM ATP, – = Non detectable; for phosphorylation (in words): hAK2.
The target of series [5] is T2, human UMP-CMP kinase (hUCK) (Homo sapiens, UniProt P30085).
T2 sequence (P30085 1-196): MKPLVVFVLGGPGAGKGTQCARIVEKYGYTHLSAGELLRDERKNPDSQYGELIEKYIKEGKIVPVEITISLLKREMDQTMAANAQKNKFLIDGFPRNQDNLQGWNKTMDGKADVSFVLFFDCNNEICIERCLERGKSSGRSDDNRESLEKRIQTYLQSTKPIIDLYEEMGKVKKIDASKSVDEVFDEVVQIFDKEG
The series can be described thus: coupled spectrophotometric NMP kinase assay, hUCK. Type of series: biochemical. The note with it: for Km: 37°C, 1 mM ATP; for Relative Vmax: relative to kcat of D-CMP (100 = kcat 130 s^−1).

Series [6] deals with T3, human dTMP kinase (hTMPK) (Homo sapiens, UniProt P23919).
T3 sequence (P23919 1-212): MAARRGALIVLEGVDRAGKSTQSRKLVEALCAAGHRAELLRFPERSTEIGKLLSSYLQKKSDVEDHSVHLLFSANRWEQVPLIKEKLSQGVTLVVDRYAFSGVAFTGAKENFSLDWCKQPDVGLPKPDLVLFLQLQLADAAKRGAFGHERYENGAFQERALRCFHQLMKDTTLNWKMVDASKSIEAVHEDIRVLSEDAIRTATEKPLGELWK
The series can be described thus: coupled spectrophotometric NMP kinase assay, hTMPK. Type of series: biochemical.

Series [7] deals with T2, human UMP-CMP kinase (hUCK). To be noted: cited from earlier work.
For series [8], the system named is hdCK. The note with it: first phosphorylation of L-dT by hdCK; cited from earlier work.
Series [9] has as its system hTK2. To be noted: first phosphorylation of L-dT by hTK2; cited from earlier work.
Series [10] has as its target T4, hTMPK (Homo sapiens, UniProt P23919).
T4 sequence (P23919 1-212): T3 sequence (P23919 1-212)
The series can be described thus: fluorescence competition assay with MABA-dTDP. Type of series: binding.

The test system of series [11] is chronic B hepatitis virus load. To be noted: woodchuck, in vivo; less efficiently than L-dC or L-dT; cited from earlier work.
Series [12] has as its system phosphoglycerate kinase. The note with it: conversion of L-dTDP into L-dTTP; cited from earlier work.
Where [13] appears, read: 2 mM ATP and 2 mM Mg^2+ (Figure 2).

As for “human AMP kinase 2 (hAK2, mitochondrial adenylate kinase) (Homo sapiens)”, the Michaelis constant (Km) (usually the concentration of substrate that gives half-maximal velocity) in series [1] amounted to 6000 ± 1000 µM. The catalytic efficiency (kcat/Km) (usually the second-order rate constant that governs catalysis at low substrate concentration) in series [2] turned out to be 70 M⁻¹ s⁻¹.

For `Nc1ncnc2c1ncn2[C@H]1C[C@H](O)[C@@H](COP(=O)(O)O)O1` [D-dAMP], the results for the Michaelis-Menten constant (Km) in series [3] and in series [4] were 1500 ± 300 µM and 210 ± 50 µM, respectively.

As for `[N-]=[N+]=N[C@@H]1[C@H](O)[C@@H](COP(=O)(O)O)O[C@H]1n1ccc(=O)[nH]c1=O` [N3-D-dUMP], in series [5], the “substrate inhibition at high concentration (in words)” value is on record as “did not give rise to substrate inhibition”, the Km was determined as 900 ± 200 µM and the “Relative Vmax” value came out at 89 ± 6%. Further, the “phosphorylation (in words)” value in [3] is “did not significantly phosphorylate”. Moreover, in series [4], the “phosphorylation (in words)” value is reported as “did not significantly phosphorylate”. Moreover, in series [6], the “phosphorylation (in words)” value is listed as “did not significantly phosphorylate”.

Take `Nc1ncnc2c1ncn2[C@@H]1O[C@H](COP(=O)(O)O)[C@@H](O)[C@H]1O` [D-AMP]: the Michaelis constant (Km) in [3] is 140 ± 20 µM; in series [4], 80 ± 20 µM.

In the case of `Nc1ccn([C@H]2C[C@H](O)[C@@H](COP(=O)(O)O)O2)c(=O)n1` [D-dCMP], in series [5], the Michaelis constant (Km) was 1000 ± 100 µM and the “Relative Vmax” value was determined as 61 ± 4%. Also, the “phosphorylation (in words)” value in series [3] is reported as “not substrates”. The “phosphorylation (in words)” value in series [4] was “not substrates”.

As to `O=c1ccn([C@@H]2O[C@H](COP(=O)(O)O)[C@@H](O)[C@H]2O)c(=O)[nH]1` [D-UMP], the Michaelis-Menten constant (Km) turned out to be 50 ± 10 µM in [5] and 6000 ± 2000 µM in series [3]. For the same molecule, in series [5], the “Relative Vmax” value was 100%.

Consider `Nc1ccn([C@@H]2CS[C@H](COP(=O)(O)O)O2)c(=O)n1` [L-3TCMP], for which the Michaelis constant (Km) in series [7] (for comparison) is 150 ± 20 µM. Further, the “Relative Vmax” value in [7] (relative to D-CMP) is 27%.

In the case of `Cc1cn([C@@H]2C[C@@H](O)[C@H](CO)O2)c(=O)[nH]c1=O` [L-dT, β-L-thymidine], the results for the catalytic efficiency in series [8] and in series [9] were 16000 M⁻¹ s⁻¹ and 1e+07 M⁻¹ s⁻¹, respectively. Also, the Kd (as a rule, the concentration at which binding is half-saturated) in [10] turned out to be 450 µM.

In the case of `Nc1ncnc2c1ncn2[C@@H]1C[C@@H](O)[C@H](CO)O1` [L-dA], the “effect on virus load (in words)” value in [11] is recorded as “reduced the virus load”.

As to `Cc1cn(C2CC(O)C(COP(=O)(O)OP(=O)(O)O)O2)c(=O)[nH]c1=O` [L-dTDP], the catalytic efficiency in series [12] was 500 M⁻¹ s⁻¹.

As to `O=c1ccn([C@H]2C[C@H](O)[C@@H](COP(=O)(O)O)O2)c(=O)[nH]1` [D-dUMP], the Km in [5] was 1300 ± 300 µM; in [6] (setting [13]) it was 170 ± 10 µM. Also, the “Relative Vmax” value in [5] is listed as 5.1 ± 0.5%. In addition, the “phosphorylation (in words)” value in [3] and in series [4] was “not substrates” each time. For the same molecule, the dissociation constant Kd in series [10] (read-out: dissociation constant KD, calculated from IC50 with Equation (1)) is 150 µM. The kcat (usually the maximal rate divided by the concentration of active sites) in series [6] (setting [13]) is 4.8 ± 0.6 s⁻¹.

The values above are taken from PMC1950558 (Nucleic Acids Research, 2007).
